Test system: Aβ in H1299 cell-conditioned media
Assay: ELISA, oligomer versus total Aβ in H1299 cell-conditioned media
Type: cell-based, human
Conditions: Fig. 8B
Description: Aβ ELISAs were carried out according to previous protocols for determining the oligomeric and monomeric concentrations of Aβ and as we recently reported. Briefly, total Aβ (monomers + oligomers) was measured by two‐site binding ELISAs using the capture 6E10 monoclonal antibody and 4G8‐conjugated biotin as the detection antibody, which recognizes a distinct epitope, then quantitated using streptavidin‐HRP.
Using the same samples, oligomerized Aβ was measured by a single‐site ELISA in which antibodies targeting the same primary sequence epitope were used for both capture (4G8) and detection (4G8‐biotin). Only oligomers are detected with this approach since the 4G8‐biotin antibody cannot bind to the captured monomer because the epitope is blocked by the 4G8 capture antibody. Therefore, only oligomeric or multimeric Aβ containing additional exposed 4G8 epitopes, not engaged by the capture antibody, are reported by the streptavidin–HRP. The amount of the monomer was then estimated as the difference between the concentration of total Aβ and the concentration of the oligomer.
Conditioned media were immunodepleted (ID) according to the methods previously described and our recently published report. Briefly, specific antibodies were bound to ELISA wells overnight (1 : 1000 dilution). The wells were then blocked and washed, then 300 μL of the conditioned medium (0.5 μg·μL^−1) treated as indicated, 72 h postserum starvation, was incubated with the antibodies bound to ELISA wells for 24 h. The ID media were then carefully removed and analyzed for the presence of the target protein or peptide by ELISA. The same amount of protein (3 µL of 600 µg·mL^−1 total protein) of each sample was analyzed in the experiments. Significant depletion (95–100%) was observed upon using each of the antibodies employed in this study.
Both epitopes recognized by the 6E10 and 4G8 antibodies have been previously shown to be exposed in Aβ aggregates. […] To determine the effect of ID of AChE or HN on this ratio in the absence or presence of added ATP, 0.2 × 10^5 cells per well were seeded in 96‐well plates in 10% FBS‐supplemented media. The next day, the cells were incubated in serum‐free medium for 72 h, then ID of AChE or HN as described in Materials and methods. The antibodies 6E10 or 4G8 were bound (1 : 1000 dilution) to ELISA wells (Fig. 8). The wells were blocked, and then incubated with 300 μL of the ID medium (0.5 μg·μL^−1). Biotin‐4G8 was then added and the signal processed as described in Materials and methods section. Fold change relative to controls using anti‐6E10 or anti‐4G8 antibodies incubated with 300 μL of the medium not incubated with cells was calculated.
Cells (0.2 × 10^5) were grown in 10% FBS‐supplemented media for 24 h. The cells were then incubated in serum‐free medium for 72 h without or with ATP and the media collected and ID from either HN or AChE as described in Materials and methods section. The antibodies 6E10 or 4G8 were bound (1 : 1000 dilution) to ELISA wells. The wells were blocked, and then incubated with 300 μL of the control and ID medium (0.5 μg·μL^−1). Biotin‐4G8 was then added and the signal processed as described in Materials and methods section. Fold change relative to controls using anti‐6E10 and anti‐4G8 antibodies and 300 μL of the medium not incubated with cells was calculated. Data were processed using the […] 8.4.3 software. The graphs summarize the results expressed as means ± SD of three separate experiments, each performed in triplicate. […]

Compound | effect of ATP on relative amount of oligomer versus total Aβ (HN-immunodepleted H1299 media, three experiments in triplicate) | effect of ATP on relative amount of oligomer versus total Aβ (non-depleted, HN-ID or AChE-ID media) | oligomer, % of total Aβ remaining after HN ID (HN-immunodepleted H1299 media (non-depleted ~ 48%)) | total Aβ remaining after HN ID (HN-immunodepleted H1299 media)
Nc1ncnc2c1ncn2[C@@H]1O[C@H](COP(=O)(O)OP(=O)(O)OP(=O)(O)O)[C@@H](O)[C@H]1O [ATP, Adenosine triphosphate] | does not affect | lack of effect | – | –
Humanin [HN] | – | – | ~ 69% | ~ 58%

Source: publication PMC7714071, “Interaction of amyloid beta with humanin and acetylcholinesterase is modulated by ATP” (FEBS Open Bio, 2020)
